One test concerns the target HBV core protein (Cp) (Hepatitis B virus genotype D subtype ayw, UniProt P03146). In words: HBV core protein (Cp) assembly rate, assembly induced by NaCl (FIG. 1). Format: biochemical. As to conditions: 5 μM Cp, assembly induced with 150 mM NaCl, increasing concentration of stain. On the procedure:
In this experiment, 5 μM Cp was incubated with or without FL-HAPAlexaFluor® 488 (Compound 5) prior to inducing assembly by addition of 150 mM NaCl.
(§1) FL-HAPAlexaFluor® 488 (Compound 5) retains several critical properties of HAP molecules. […] Most importantly, FL-HAPAlexaFluor® 488 (Compound 5) binds pre-assembled cores with high affinity.

For another test, the system named is control HepG2 cells. In words: Fluorescence microscopy of stained control cells (FIG. 4). Format: cell-based. The following applies: camera on high gain. The source says: (§2) Various forms of FL-HAP may be synthesized thereby varying the resulting solubility properties of the fluorescent stain. The more soluble forms are particularly useful for observing HBV cores in solution or serum; they may also be useful for lightly staining intracellular HBV cores. The ability of the illustrative FL-HAP compound, FL-HAPAlexaFluor® 488 (Compound 5), to cross cell membranes and label HBV-expressing cells and, specifically, to label concentrations of HBV cores in those cells, is shown in FIG. 4. […] The more hydrophobic forms of FL-HAP (e.g., Compound 6 and Compound 7) are particularly useful for rapid staining of tissue samples.

For a further test, the target named is HBV capsid / Cp dimer (Hepatitis B virus genotype D subtype ayw, UniProt P03146). In words: Size exclusion chromatography (Superose 6) of Cp assembly reactions (FIG. 2). In kind it is binding. On the procedure:
In this experiment, 5 μM Cp was mixed with FL-HAPAlexaFluor® 488 (Compound 5) and then induced to assemble with 150 mM NaCl. Reactions were resolved on a Superose 6 column after 24 hours. Capsid elutes at 9.5 ml, aggregates at 8 ml, and Cp dimer at 18 ml.
as §1
In general terms: In gel filtration, larger molecules generally elute earlier.

In test [1] the test system is HepG2 cells expressing RNA-filled HBV cores. Put plainly: Fluorescence microscopy of stained HBV-producing cells (FIG. 4). Format: cell-based.
Description: as §2

Another test concerns the target capsid protein of HBV (Hepatitis B virus genotype D subtype ayw, UniProt P03146). In words: Binding to the capsid protein of HBV (general statement).
A further test has as its target HBV capsids (Hepatitis B virus genotype D subtype ayw, UniProt P03146). In words: Staining of pre-assembled HBV capsids, sucrose gradient and agarose gel electrophoresis (FIG. 3). Format: binding. The procedure:
Shown at left: Capsids stained with FL-HAPAlexaFluor® 488 (Compound 5) were separated on a sucrose gradient. […] Shown at right: Capsids, at the listed concentration, were stained with 25 nM FL-HAPAlexaFluor® 488 (Compound 5) prior to electrophoresis.
as §1

Sequence of capsid protein of HBV (P03146 whole entry): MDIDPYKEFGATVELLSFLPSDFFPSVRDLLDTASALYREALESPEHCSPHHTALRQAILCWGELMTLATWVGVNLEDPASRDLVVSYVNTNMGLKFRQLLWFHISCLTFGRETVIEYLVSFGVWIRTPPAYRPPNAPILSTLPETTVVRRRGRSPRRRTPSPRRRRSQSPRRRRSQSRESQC
Sequence of HBV capsid / Cp dimer (P03146 whole entry): as above
Sequence of HBV capsids (P03146 whole entry): as above
Sequence of HBV core protein (Cp) (P03146 whole entry): as above

`COC(=O)C1=C(CN2CCN(C(=O)CCCNC(=O)c3ccc(-c4c5ccc(=N)c(S(=O)(=O)O)c-5oc5c(S(=O)(=O)O)c(N)ccc45)c(C(=O)O)c3)CC2)NC(c2ccccn2)=NC1c1ccc(F)cc1Cl` (stereo not drawn) [Compound 5]: the “effect on core protein assembly rate” value at HBV core protein (Cp) was “accelerates core protein assembly”. Also, the “fluorescent labeling of cells” value is “no green puncta are seen” with control HepG2 cells; “numerous puncta and aggregates of puncta are seen” in test [1] (HepG2 cells expressing RNA-filled HBV cores). Besides, on HBV capsid / Cp dimer (5 μM Cp, 150 mM NaCl, Superose 6 column after 24 hours, increasing stain), the “extent of assembly and size of complexes” value is on record as “more assembly of progressively larger complexes”. In addition, at HBV capsid / Cp dimer (SEC, as stain is added), the “free HBV dimer remaining” value was “progressively less free HBV dimer”. The “formation of aberrant particles” value on HBV capsid / Cp dimer (light scattering in excess of free capsid, products run faster on SEC than capsid) is reported as “leads to formation of aberrant particles”. In addition, the “copies bound per HBV capsid” value at HBV capsid / Cp dimer (ratio of protein to fluorophore absorbance across SEC peaks) is “approximately 120 copies”. Further, the “species bound by the stain (capsid vs dimer)” value at HBV capsid / Cp dimer (visualized at 495 nm) was “only assembled Cp (i.e., capsid) is bound”. Further, in test [1] (data not shown), the “co-localization of fluorescence with Cp-specific antibodies” value is on record as “co-localize with Cp-specific antibodies”. Besides, the “binding to the capsid protein of HBV” value at capsid protein of HBV is recorded as “specific binding”. Also, the “dissociation from HBV capsids” value on HBV capsids is “dissociates slowly”. Besides, the “affinity for pre-assembled HBV cores” value on HBV capsids (SEC, sucrose gradient, agarose gel) is recorded as “high affinity”. For the same compound, the “binding to capsids on electrophoresis” value on HBV capsids (capsids stained with 25 nM stain prior to electrophoresis, non-equilibrium conditions) is “binding was evident at nM concentrations”.

For `COC(=O)C1=C(CN2CCN(C(=O)CCCNC(=S)Nc3ccc(-c4c5ccc(=O)cc-5oc5cc(O)ccc45)c(C(=O)O)c3)CC2)NC(c2ccccn2)=NC1c1ccc(F)cc1Cl` (stereo not drawn) [Compound 6], the “binding to the capsid protein of HBV” value at capsid protein of HBV is reported as “specific binding”.

Regarding `COC(=O)C1=C(CN2CCN(C(=O)CCCNC(=O)CCC3=[N+]4C(=Cc5c(C)cc(C)n5[B-]4(F)F)C=C3)CC2)NC(c2ccccn2)=NC1c1ccc(F)cc1Cl` (stereo not drawn) [Compound 7], the “binding to the capsid protein of HBV” value at capsid protein of HBV was “specific binding”.

(Values after patent US10006913B2, “Fluorescent-HAP: a diagnostic stain for HBV cores in cells” (INDIANA UNIVERSITY RESEARCH AND TECHNOLOGY CORPORATION, priority 2013, dated 2018).)
